From the NIST ThermoML archive (doi:10.1021/acs.jced.7b00690)
± gives the expanded uncertainty stated by the source.

Assay: mn = molality of the nth substance listed, in mol/kg
Details: 100 kPa, Liquid, Vibrating tube method

O=C([O-])C(=O)[O-].[Na+].[Na+] [sodium oxalate] + O
Details	mass density [kg/m3]
298.15 K, m1 = 0.263	1025.1 ± 55
298.15 K, m1 = 0.265	1020.9 ± 12
298.15 K, m1 = 0.272	1020.9 ± 8
323.15 K, m1 = 0.317	1020.3 ± 8.9
323.15 K, m1 = 0.334	1022.4 ± 9
343.15 K, m1 = 0.385	1016.5 ± 9.5
